From patent publication US20060111259A1, “Detergent composition” (Conopco Inc, d/b/a UNILEVER, priority 2004, published 2006)

System: Staphylococcus epidermidis biofilm
Assay: In-vitro biofilm microtitre plate assay, regrowth of biofilm after 1 minute treatment (growth index, GRI)
Type: cell-based
Settings: conclusion in words from normalised GRI of soap + clay + antibacterial combinations
Protocol: A biofilm based microtitre plate assay was used to determine the antibacterial efficacy of the test suspensions. The efficacy is measured in terms of an index called the growth index [GRI].
An axillary isolate of Staphylococcus epidermidis was used for all the studies. The isolate was maintained on sterile CYAgar [Blood agar base 2—42 gm.1^−1, dextrose—2 gm.1^−1, yeast extract—3 gm.1^−1, polysorbate 80—5 gm.1^−1]. 24 hrs prior to the study, the isolate was subcultured onto fresh sterile CYAgar and incubated at 37° C. […]
Standardization of biofilm in terms of its attachment to polystyrene wells was initially carried out by crystal violet staining and quantification of cell numbers. […]
A kinetic assay was performed to measure the regrowth of the biofilm in an iEMS reader using the Thermo Labsystems Ascent Software™. Readings were recorded at 37° C. for 24 hrs on an hourly basis at 620 nm.
Growth of bacteria is represented by 4 phases—lag phase, exponential phase, stationary phase and death phase. […] The cumulative effect of the antibacterial over the placebo effect can be determined by the product of the increase in the time taken to reach the mid log phase from the control, and the decrease in the cell density after 24 hrs of growth. […]

Row | SMILES | synergistic benefit in antibacterial efficacy
1 | Oc1cc(Cl)ccc1Oc1ccc(Cl)cc1Cl [TCN, 4,2′,4′-trichloro-2-hydroxy diphenyl ether] | do not provide similar synergistic benefit
2 | O=C(Nc1ccc(Cl)cc1)Nc1ccc(Cl)c(Cl)c1 [TCC, 3,4,4′ trichlorocarbanilide] | do not provide similar synergistic benefit
